Source: the NIST ThermoML archive (doi:10.1016/j.jct.2018.08.005)
Numbers after ± are expanded uncertainties.

Experiment: xn = mol fraction of the nth substance listed
Settings: Liquid, Vibrating tube method

CCOC(F)(C(F)(F)C(F)(F)C(F)(F)F)C(F)(C(F)(F)F)C(F)(F)F (stereo not given) [2-trifluoromethyl-3-ethoxydodecafluorohexane] + CC(C)OC(C)C
mass density [kg/m3]
Settings | x1 = 0.25 | x1 = 0.375 | x1 = 0.5 | x1 = 0.625 | x1 = 0.75
363.15 K, 70000 kPa | 1074.1 ± 0.8 | 1203 ± 1 | 1317.5 ± 1.2 | 1418.6 ± 1.5 | 1507 ± 1.8
363.15 K, 80000 kPa | 1085.2 ± 0.8 | 1215.5 ± 1.1 | 1330.8 ± 1.4 | 1432.6 ± 1.7 | 1521.5 ± 2
363.15 K, 90000 kPa | 1095.5 ± 0.9 | 1227 ± 1.2 | 1343.1 ± 1.5 | 1445.6 ± 1.9 | 1534.9 ± 2.3
363.15 K, 100000 kPa | 1105.1 ± 0.9 | 1237.5 ± 1.3 | 1354.5 ± 1.7 | 1457.8 ± 2.1 | 1547.4 ± 2.5
363.15 K, 110000 kPa | 1114.2 ± 0.9 | 1247.5 ± 1.4 | 1365.3 ± 1.9 | 1469.1 ± 2.4 | 1559.3 ± 2.8
363.15 K, 120000 kPa | 1122.7 ± 1 | 1257.1 ± 1.5 | 1375.4 ± 2.1 | 1479.8 ± 2.6 | 1570.4 ± 3.1
363.15 K, 130000 kPa | 1130.7 ± 1.1 | 1265.9 ± 1.6 | 1385 ± 2.3 | 1490 ± 2.8 | 1580.9 ± 3.3
363.15 K, 140000 kPa | 1138.4 ± 1.1 | 1274.6 ± 1.8 | 1394.2 ± 2.5 | 1499.7 ± 3.1 | 1591 ± 3.6
373.15 K, 10000 kPa | 957.5 ± 0.8 | 1074 ± 0.8 | 1179.6 ± 0.8 | 1272.3 ± 0.8 | 1355.8 ± 0.8
373.15 K, 20000 kPa | 983.8 ± 0.7 | 1103.6 ± 0.8 | 1210.9 ± 0.8 | 1305.3 ± 0.8 | 1389.8 ± 0.9
373.15 K, 30000 kPa | 1005 ± 0.7 | 1127.2 ± 0.8 | 1236 ± 0.8 | 1331.8 ± 0.9 | 1417.3 ± 1
373.15 K, 40000 kPa | 1022.8 ± 0.7 | 1147.1 ± 0.8 | 1257.2 ± 0.9 | 1354.2 ± 1 | 1440.5 ± 1.1
373.15 K, 50000 kPa | 1038.4 ± 0.8 | 1164.3 ± 0.8 | 1275.8 ± 1 | 1373.8 ± 1.1 | 1460.8 ± 1.3
373.15 K, 60000 kPa | 1052.3 ± 0.8 | 1179.7 ± 0.9 | 1292.2 ± 1.1 | 1391.2 ± 1.3 | 1478.9 ± 1.5
373.15 K, 70000 kPa | 1064.8 ± 0.8 | 1193.7 ± 1 | 1307.2 ± 1.2 | 1407 ± 1.5 | 1495.3 ± 1.7
373.15 K, 80000 kPa | 1076.3 ± 0.8 | 1206.4 ± 1 | 1320.8 ± 1.3 | 1421.5 ± 1.7 | 1510.3 ± 2
373.15 K, 90000 kPa | 1086.9 ± 0.8 | 1218.3 ± 1.1 | 1333.5 ± 1.5 | 1435 ± 1.9 | 1524.3 ± 2.2
373.15 K, 100000 kPa | 1096.9 ± 0.9 | 1229.2 ± 1.2 | 1345.3 ± 1.7 | 1447.4 ± 2.1 | 1537.2 ± 2.5
373.15 K, 110000 kPa | 1106.1 ± 0.9 | 1239.6 ± 1.3 | 1356.2 ± 1.8 | 1459.1 ± 2.3 | 1549.4 ± 2.7
373.15 K, 120000 kPa | 1114.8 ± 1 | 1249.3 ± 1.5 | 1366.6 ± 2 | 1470.1 ± 2.5 | 1560.8 ± 3
373.15 K, 130000 kPa | 1123.1 ± 1 | 1258.3 ± 1.6 | 1376.4 ± 2.2 | 1480.5 ± 2.8 | 1571.6 ± 3.3
373.15 K, 140000 kPa | 1130.8 ± 1.1 | 1267 ± 1.7 | 1385.7 ± 2.4 | 1490.4 ± 3 | 1581.8 ± 3.6
383.15 K, 10000 kPa | 942.8 ± 0.8 | 1058 ± 0.8 | 1162.6 ± 0.8 | 1254.2 ± 0.8 | 1336.7 ± 0.8
383.15 K, 20000 kPa | 971.3 ± 0.7 | 1089.6 ± 0.8 | 1196.3 ± 0.8 | 1289.7 ± 0.8 | 1373.1 ± 0.9
383.15 K, 30000 kPa | 993.8 ± 0.7 | 1114.7 ± 0.8 | 1223 ± 0.8 | 1317.8 ± 0.9 | 1402 ± 1
383.15 K, 40000 kPa | 1012.6 ± 0.7 | 1135.6 ± 0.8 | 1245.4 ± 0.9 | 1341.5 ± 1 | 1426.5 ± 1.1
383.15 K, 50000 kPa | 1028.9 ± 0.8 | 1153.6 ± 0.8 | 1264.7 ± 1 | 1361.9 ± 1.1 | 1447.6 ± 1.3
383.15 K, 60000 kPa | 1043.2 ± 0.8 | 1169.5 ± 0.9 | 1281.8 ± 1.1 | 1379.9 ± 1.2 | 1466.4 ± 1.5
383.15 K, 70000 kPa | 1056.2 ± 0.8 | 1184 ± 0.9 | 1297.2 ± 1.2 | 1396.3 ± 1.4 | 1483.3 ± 1.7
383.15 K, 80000 kPa | 1068.1 ± 0.8 | 1197.2 ± 1 | 1311.3 ± 1.3 | 1411.4 ± 1.6 | 1498.8 ± 1.9
383.15 K, 90000 kPa | 1079 ± 0.8 | 1209.3 ± 1.1 | 1324.3 ± 1.5 | 1425 ± 1.8 | 1513.1 ± 2.2
383.15 K, 100000 kPa | 1089.2 ± 0.9 | 1220.6 ± 1.2 | 1336.3 ± 1.6 | 1437.8 ± 2 | 1526.4 ± 2.4
383.15 K, 110000 kPa | 1098.7 ± 0.9 | 1231.2 ± 1.3 | 1347.6 ± 1.8 | 1449.8 ± 2.3 | 1538.8 ± 2.7
383.15 K, 120000 kPa | 1107.7 ± 0.9 | 1241.3 ± 1.4 | 1358.3 ± 2 | 1461.2 ± 2.5 | 1550.7 ± 3
383.15 K, 130000 kPa | 1116.1 ± 1 | 1250.6 ± 1.6 | 1368.1 ± 2.2 | 1471.8 ± 2.7 | 1561.7 ± 3.2
383.15 K, 140000 kPa | 1124.2 ± 1.1 | 1259.6 ± 1.7 | 1377.9 ± 2.4 | 1481.9 ± 3 | 1572.3 ± 3.5
393.15 K, 10000 kPa | 927.9 ± 0.8 | 1041.6 ± 0.8 | 1145.1 ± 0.8 | 1235.9 ± 0.8 | 1317.8 ± 0.8
393.15 K, 20000 kPa | 958.4 ± 0.8 | 1075.7 ± 0.8 | 1181.2 ± 0.8 | 1273.8 ± 0.8 | 1356.7 ± 0.9
393.15 K, 30000 kPa | 982.1 ± 0.8 | 1102.2 ± 0.8 | 1209.4 ± 0.8 | 1303.4 ± 0.9 | 1387.3 ± 1
393.15 K, 40000 kPa | 1001.8 ± 0.7 | 1124 ± 0.8 | 1232.7 ± 0.9 | 1328 ± 1 | 1412.8 ± 1.1
393.15 K, 50000 kPa | 1018.7 ± 0.8 | 1142.7 ± 0.8 | 1252.8 ± 1 | 1349.1 ± 1.1 | 1434.8 ± 1.2
393.15 K, 60000 kPa | 1033.7 ± 0.8 | 1159.3 ± 0.9 | 1270.5 ± 1.1 | 1368 ± 1.2 | 1454.2 ± 1.4
393.15 K, 70000 kPa | 1047.2 ± 0.8 | 1174.3 ± 0.9 | 1286.5 ± 1.2 | 1385.1 ± 1.4 | 1471.7 ± 1.7
393.15 K, 80000 kPa | 1059.3 ± 0.8 | 1187.7 ± 1 | 1300.8 ± 1.3 | 1400.3 ± 1.6 | 1487.5 ± 1.9
393.15 K, 90000 kPa | 1070.8 ± 0.8 | 1200.4 ± 1.1 | 1314.4 ± 1.4 | 1414.7 ± 1.8 | 1502.4 ± 2.1
393.15 K, 100000 kPa | 1081.3 ± 0.8 | 1211.9 ± 1.2 | 1326.8 ± 1.6 | 1428 ± 2 | 1516 ± 2.4
393.15 K, 110000 kPa | 1091 ± 0.9 | 1222.8 ± 1.3 | 1338.4 ± 1.8 | 1440.1 ± 2.2 | 1528.7 ± 2.6
393.15 K, 120000 kPa | 1100.3 ± 0.9 | 1233 ± 1.4 | 1349.4 ± 1.9 | 1451.6 ± 2.5 | 1540.7 ± 2.9
393.15 K, 130000 kPa | 1108.9 ± 1 | 1242.6 ± 1.5 | 1359.7 ± 2.1 | 1462.5 ± 2.7 | 1552.1 ± 3.2
393.15 K, 140000 kPa | 1117 ± 1 | 1251.6 ± 1.7 | 1369.3 ± 2.3 | 1472.9 ± 2.9 | 1562.7 ± 3.4
